Assay results published in patent US20040220089A1, “Ophthalmic preparation containing glycoprotein” (priority 2001, published 2004).

Tested on: Madin-Darby Canine Kidney (MDCK) cells
Test: in vitro transepithelial permeability assay (fluorescein, Tchao) for eye irritation potential
Conditions: MDCK monolayer, 30 minutes at 37° C., Na-fluorescein permeability; SDS=100% response; less than 20% considered non-irritating
Source text: The Tchao technique is described as a method of determining potential eye irritation of a substance by correlating damage to a mono-layer of Madin-Darby Canine Kidney (MDCK) cells with damage to corneal epithelial cells. The amount of fluorescein passing through the cell mono-layer is a function of permeability of the cell mono-layer. Higher cell mono-layer permeability indicates greater damage to the cell junctions from application of a test solution thereto, whereas lower cell mono-layer permeability indicates less damage to the cell junctions from application of the test solution. […]
Test: Each insert is rinsed with Hanks Balanced Salt Solution (HBSS) 3×1 ml using a 10 ml syringe without needle. […] After incubation at room temperature for 30 minutes, the inserts are sequentially removed from the wells, and the amount of Na-fluorescein in each of the wells is measured in a CytoFluor 2300, using 540 nm excitation and 590 nm emission. […] It has been determined that the assay can measure the effect of 50 μg/ml SDS, and the effect on the permeability of the monolayer is linearly proportional to the concentrations of SDS from 50-250 μg/ml. Fluorescence units (arbitrary) of each test solution is plotted against test solutions.
Interpretation of results: The results are expressed as % of SDS response, and comparisons with the HBSS response. […]

Structure (SMILES): CCCCCCCCCCCCOS(=O)(=O)[O-].[Na+] [SDS, sodium dodecyl sulfate]
- RESPONSE (percentage of SDS response): 100%
